Data published in patent US8673913B2, “SHP-2 phosphatase inhibitor” (Case Western Reserve University, priority 2009, dated 2014).

Key:
[1] = molecular target: T1, SHP-2 PTP domain GST fusion protein (Homo sapiens, UniProt Q06124); test: fluorescence titration (quenching of SHP-2 fluorescence); assay type: binding; design: Purified SHP-2 PTP domain GST-fusion protein was diluted into 20 mM Tris-HCl; made in house; details: SHP-2 protein 3 μM, excitation 295 nm
T1 sequence (Q06124 247-517 limits assumed): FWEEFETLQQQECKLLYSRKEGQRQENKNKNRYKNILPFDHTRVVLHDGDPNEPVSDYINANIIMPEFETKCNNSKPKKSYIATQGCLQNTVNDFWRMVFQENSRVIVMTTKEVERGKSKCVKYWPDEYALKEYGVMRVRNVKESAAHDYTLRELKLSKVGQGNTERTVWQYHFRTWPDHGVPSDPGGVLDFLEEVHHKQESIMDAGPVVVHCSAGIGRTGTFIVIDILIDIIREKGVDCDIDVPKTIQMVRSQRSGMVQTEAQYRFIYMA
Protocol: For all experiments, Purified SHP-2 PTP domain GST-fusion protein was diluted into 20 mM Tris-HCl, pH 7.5. Fluorescence spectra were recorded with a Luminescence Spectrometer LS50 (Perkin-Elmer, Boston, Mass.). Titrations were performed by increasing the test compound concentration while maintaining the SHP-2 protein concentration at 3 μM. Contributions from background fluorescence of the inhibitors were accounted for by subtracting the fluorescence of the inhibitors alone from the of the protein-inhibitor solution. The excitation wavelength was 295 nm and fluorescence was monitored from 360 to 500 nm. All reported fluorescence intensities are relative values and are not corrected for wavelength variations in detector response.
To validate that the active compounds identified were binding directly to the SHP-2 protein, we determined whether the active compounds directly interacted with the SHP-2 PTP domain using fluorescence quenching and taking advantage of the four tryptophans in the PTP domain, with Trp248 located 15 Å from the putative pY+5 pocket and Trp423 located 8 Å from the phosphatase active site. […] Therefore, their binding to SHP-2 protein could not be determined using this measurement. Thus, the fluorescence quenching experiments indicate that at least four active compounds identified do directly bind to SHP-2, thereby leading to their biological activities.

[2] = molecular target: T1, SHP-2 PTP domain GST fusion protein; test: in vitro protein tyrosine phosphatase assay, SHP-2 (Malachite Green); assay type: biochemical; design: SHP-2 PTP domain GST fusion protein purified in house was used as the enzyme; made in house; details: compound at 100 μM; read-out: inhibition of SHP-2 enzymatic activity
Source text: Candidate compounds were screened using the in vitro protein tyrosine phosphatase (PTP) assay kit (Sigma, St. Lois, Mo.). SHP-2 PTP domain GST fusion protein purified in house was used as the enzyme and a phospho-peptide corresponding to the surrounding sequence of pTyr^1146 in the insulin receptor (Thr-Arg-Asp-Ile-Tyr[PO3H2]-Glu-Thr-Asp-Tyr-Tyr) were used as the substrate. The assay determines free phosphate generated by dephosphorylation of the PTP substrate using the Malachite Green reagent. Briefly, 0.5 μg of GST-SHP-2 PTP was incubated in 40 μL assay buffer (25 mM Tris-HCl, PH7.4, 50 mM NaCl, 5 mM DTT, and 2.5 mM EDTA) with test compounds at various concentrations or DMSO at room temperature for 30 min. The PTP substrate was then added to a final concentration of 0.2 mM. The system was incubated at 30° C. for 30 min. Finally, 50 μl of Malachite Green solution was added and OD620 was measured after 5 min. In the phosphatase assays for SHP-1, CD45, TC-PTP, PTP-MEG2 (PTPN9), and LAR (PTPRF), procedures were similar, with the exception that GST-SHP-1, GST-CD45 cytoplasmic domain, GST-TC-PTP, GST-PTP-MEG2 PTP domain, and GST-LAR PTP domain purchased from Biomol International, L.P. (Plymouth Meeting, Pa.) were used instead as the enzymes.
Candidate compounds identified by CADD were screened by the in vitro tyrosine phosphatase assay as described in the Experimental Section. The GST-SHP-2 PTP domain fusion protein was incubated with the compounds at room temperature for 30 min before the phospho-peptide substrate was added to the assay systems, allowing compounds to bind to target sites in SHP-2. Each test compound was dissolved in DMSO. Initial concentration of the test compounds was 100 μM. In the experimental assay, DMSO was included as the negative control and sodium orthovanadate (100 μM), a general non-specific tyrosine phosphatase inhibitor, was used as the positive control. From the 165 commercially available compounds tested, we identified 9 compounds that inhibit SHP-2 catalytic activity with various efficiencies (FIG. 3A). […] The inhibitory effects of the compounds were dose-dependent.

Compound | quenching of SHP-2 fluorescence [1] | inhibition at 100 µM [2] [%]
CCc1ccc(OCC(=O)Nc2ccc(S(N)(=O)=O)cc2)cc1 [#270] | did not show significant quenching | 
CNC(=S)NNC(=O)CSCCS(=O)(=O)c1ccccc1 [#234] | did not show significant quenching | 
CSc1ccc(C2C(C#N)=C(N)Oc3[nH]nc(-c4ccccc4Cl)c32)cc1 (centres unmarked) [#284] | strong quenching | 
O=C(CCCn1c(=O)c2cccn2c2cccnc21)NCc1ccccc1F [#212] |  | 45
CNC(=S)NNC(=O)c1csc(-c2cccs2)n1 [#226] |  | 40
